The text below walks through data of ChEMBL document CHEMBL6087396, “Perspective for Drug Discovery Targeting SARS Coronavirus Methyltransferases: Function, Structure and Inhibition” (J Med Chem, 2024).

In the first test the target is T1, Replicase polyprotein 1ab (Severe acute respiratory syndrome coronavirus 2, UniProt P0DTD1). The test can be described thus: Binding affinity to SARS-CoV-2 nsp14 assessed as dissociation constant.
Conditions: not given
`NC[C@@H](CC[C@H](N)C(=O)O)C[C@H]1O[C@@H](n2cnc3c(N)ncnc32)[C@H](O)[C@@H]1O`: the Kd (as a rule, the constant that tells how readily two partners part at equilibrium) came out at 1.6 nM.

For the compound `Nc1ncnc2c1c(C#Cc1cnc3ccccc3c1)cn2[C@@H]1O[C@H](CSCC[C@H](N)C(=O)O)[C@@H](O)[C@H]1O`, the Kd amounted to 25.2 nM.

In another test the target is T1, Replicase polyprotein 1ab. The test can be described thus: Binding affinity to SARS-CoV-2 nsp14 assessed as inhibition constant.
Conditions: not given
On to `CC(C)N(CCCNC(=O)Nc1ccc(C(C)(C)C)cc1)C[C@H]1O[C@@H](n2cc(Br)c3c(N)ncnc32)[C@H](O)[C@@H]1O`, for which the Ki (usually the dissociation constant of the complex between target and ligand, obtained from inhibition or displacement) was 8000 nM.

Consider `Nc1ncnc2c1ncn2[C@@H]1O[C@H](CSCCCCNCc2cccc(-c3ccc(Cl)cc3)c2)[C@@H](O)[C@H]1O`, for which the inhibition constant Ki is 6000 nM.

The test system of a further test is SARS-CoV-2. The test can be described thus: Antiviral activity against SARS-CoV-2 infected in African green monkey Vero E6 cells assessed as inhibition of viral growth incubated for 72 hrs by plaque assay. It counts as functional, organism-based. The conditions noted are these: Severe acute respiratory syndrome coronavirus 2, Vero C1008, 72 h.
Take `CC(=O)c1cc(O)c2ccccc2c1O`: the EC50 (as a rule, the concentration that produces a half-maximal response) is 8.5 nM.

On to `N#Cc1ccc(N2N=C3c4ccc(C(=O)O)cc4CC[C@@H]3[C@@H]2C2CCCC2)cc1Cl` [PF-03882845], for which the 50% effective concentration (EC50) came out at 11 nM.

For `O=C(O)C1=CC(=C(c2ccc(O)c(C(=O)O)c2)c2ccc(O)c(C(=O)O)c2)C=CC1=O` [AURINTRICARBOXYLIC ACID], the EC50 amounted to 0.47 nM.

Take `CCN(C[C@H]1O[C@@H](n2cnc3c(N)ncnc32)[C@H](O)[C@@H]1O)S(=O)(=O)c1ccc(Cl)c(C#N)c1`: the EC50 came out at 1.9 nM.

With `O=c1nc2n(CCO)c3ccccc3nc-2c(=O)n1-c1ccccc1`, the EC50 came out at 5.7 nM.

Take `O=c1c2ccccc2[se]n1-c1ccccc1` [EBSELEN]: the EC50 turned out to be 34 nM.

For a further test, the target named is Replicase polyprotein 1ab. The test can be described thus: Inhibition of N-terminal 6His-tagged SARS-CoV nsp14 extracted from Escherichia coli.
Conditions: not given
As to `Cc1cc(=O)oc2cc(NC(=O)[C@H]3O[C@@H](n4cc(C#Cc5cncnc5)c5c(N)ncnc54)[C@H](O)[C@@H]3O)ccc12`, it took 31000 nM to reach half-maximal inhibition (IC50).

In the case of `Nc1ncnc2c1ncn2[C@@H]1O[C@H](CN(CCO[C@@H]2[C@H](O)[C@@H](CO)O[C@H]2n2cnc3c(N)ncnc32)S(=O)(=O)c2ccc(Cl)c([N+](=O)[O-])c2)[C@@H](O)[C@H]1O`, the IC50 (usually the concentration at which inhibition is half-maximal) worked out at 600 nM.

Compound `Nc1ncnc2c1ncn2[C@@H]1O[C@H](CNS(=O)(=O)c2ccc3ccccc3c2)[C@@H](O)[C@H]1O` registered an IC50 of 93000 nM.

For `NC[C@@H](CC[C@H](N)C(=O)O)C[C@H]1O[C@@H](n2cnc3c(N)ncnc32)[C@H](O)[C@@H]1O`, it took 1100 nM to reach half-maximal inhibition (IC50).

Consider `COc1ccc(S(=O)(=O)N(C)C[C@H]2O[C@@H](n3cc(C#Cc4cnc5ccccc5c4)c4c(N)ncnc43)[C@H](O)[C@@H]2O)cc1C#N`, for which the IC50 was 720 nM.

For the compound `CC1=C(C)C(=O)C(C(C)(C)CC(=O)N(CCCCSC[C@H]2O[C@@H](n3cnc4c(N)ncnc43)[C@H](O)[C@@H]2O)Cc2cccc(-c3ccc(Cl)cc3)c2)=C(C)C1=O`, half-maximal inhibition (IC50) required 1100 nM.

In the case of `Nc1ncnc2c1c(C#Cc1cnc3ccccc3c1)cn2[C@@H]1O[C@H](CSCC[C@H](N)C(=O)O)[C@@H](O)[C@H]1O`, the IC50 is 3 nM.

Consider `Nc1ncnc2c1ncn2[C@@H]1O[C@H](CSCC[C@H](N)C(=O)O)[C@@H](O)[C@H]1O` [S-ADENOSYLHOMOCYSTEINE], for which half-maximal inhibition (IC50) was put at 16000 nM.

In turn, `Nc1ncnc2c1ncn2[C@@H]1O[C@H](CSCc2cc(C(=O)O)cc(-c3ccccc3)c2)[C@@H](O)[C@H]1O` yielded an IC50 of 580 nM.
